Our source for the TGI values is PubChem BioAssay (NCI).

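Exposure lasted 48 hours, with cells grown in 96-well plates and compounds tested at five concentrations. At the TGI there is no net growth.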

What all share (experiment): DTP human tumour cell line panel, 48 h
Assay [1] deals with A549 NSCLC.
Assay [2] deals with ACHN renal.
Assay [3] has as its system BT-549 breast.
Assay [4] concerns COLO 205 colon.
For assay [5], the system named is DU-145 prostate.
Assay [6] has as its system EKVX NSCLC.
Assay [7] concerns HOP-62 NSCLC.
For assay [8], the system named is HT29 colon.
Assay [9] deals with M14 melanoma.
Assay [10] relates to MALME-3M melanoma.
The test system of assay [11] is NCI-H226 lung.
For assay [12], the system named is NCI-H522 lung.
The test system of assay [13] is RXF 393 renal.
In assay [14] the test system is SNB-19 CNS.
The subject of assay [15] is SNB-75 CNS.
In assay [16] the test system is T-47D breast.
Assay [17] has as its system TK-10 renal.
The test system of assay [18] is NCI-H23 lung.

Consider `Cc1nc(-c2cc3c(ccc4ccccc43)oc2=O)cs1`, for which the TGI in assay [1] is > 100 µM; in [2], > 100 µM; in assay [3] it was 57.8 µM; in [4] it was > 100 µM; in assay [5], > 100 µM; in assay [6], > 100 µM. In addition, the TGI in [7], in assay [8], in assay [9], in [10], in assay [11] and in assay [12] was > 100 µM each time. For the same molecule, the TGI is > 100 µM in assay [13]; > 100 µM in assay [14]; 75.2 µM in [15]; > 100 µM in [16]; > 100 µM in assay [17].

For the molecule `O=C1N=C(SC2OC(CO)C(O)C(O)C2O)S/C1=C\c1ccccc1` (stereo not drawn), the TGI in assay [1], in [2], in assay [3], in [5], in assay [7] and in assay [8] was > 100 µM in each case. For the same molecule, the TGI in assay [9], in assay [10], in assay [11], in [18], in [12] and in assay [13] was > 100 µM each time. In addition, the TGI in assay [14], in assay [15], in assay [16] and in assay [17] was > 100 µM each time.

Take `CC(=O)c1sc2c(c1OC(=O)c1ccco1)c(=O)n(-c1ccccc1)c(=S)n2-c1ccccc1`: the TGI was > 100 µM in [1]; 62.3 µM in assay [3]; 37.9 µM in [4]; 76.9 µM in assay [5]; 59.1 µM in [6]; 66.8 µM in [7]. For the same molecule, the TGI in assay [8] is > 100 µM; in assay [9] it was 28.3 µM; in assay [10], 37.9 µM; in [11], 16.1 µM; in assay [18], 73.8 µM; in assay [12] it was 39.7 µM. Besides, the TGI was determined as 28.2 µM in assay [13]; 88.2 µM in assay [14]; 78.1 µM in assay [15]; 36.4 µM in assay [16]; 92.6 µM in assay [17].

With `N#Cc1c(=O)n(-c2ccccc2)c(O)c2c(N)n[nH]c12`, the TGI in assay [1], in assay [3], in [4], in [5], in assay [6] and in [8] was > 100 µM in each case. Besides, the TGI in [9], in [10], in [11], in assay [18], in [12] and in assay [13] was > 100 µM in each case. The TGI in [14], in [15], in assay [16] and in [17] was > 100 µM in each case.

With `c1ccc(-c2nc3ccccc3n3c(CN4CCCCC4)nnc23)cc1`, the TGI in assay [1], in assay [2], in assay [3], in [4], in assay [5] and in assay [6] was > 100 µM throughout. The TGI in [7], in assay [8], in [9], in assay [10], in assay [11] and in assay [12] was > 100 µM throughout. Besides, the TGI in [13] is > 100 µM; in assay [14], > 100 µM; in [15] it was 40.7 µM; in assay [16], > 100 µM; in assay [17], > 100 µM.

With `COC(=O)c1cc2c(cc1CC1Cc3cc4c(cc3C1=O)CCC4)CCC2` (stereo not drawn), the TGI in [1], in assay [2], in [3], in assay [4], in assay [5] and in assay [6] was > 100 µM throughout. In addition, the TGI in assay [7], in [8], in assay [9], in [10], in assay [11] and in assay [18] was > 100 µM throughout. The total growth inhibition concentration (TGI) in [12], in assay [14], in [15], in assay [16] and in [17] was > 100 µM each time.

Consider `Nc1cccnc1NCC1(CO)CCCC1`, for which the TGI in assay [1], in assay [2], in [3], in [4], in [5] and in assay [6] was > 100 µM each time. Also, the TGI in [7], in assay [8], in assay [10], in assay [11], in [18] and in assay [12] was > 100 µM in each case. Further, the TGI in [13], in [15], in [16] and in assay [17] was > 100 µM in each case.

Turning to `N#CC12CNCC1CN=N2` (stereo not drawn), the TGI in assay [1], in [2], in [3], in [4], in assay [5] and in assay [6] was > 100 µM each time. Moreover, the TGI in assay [7], in assay [8], in assay [10], in assay [11], in [18] and in [12] was > 100 µM throughout. The TGI in assay [13], in [14], in assay [15], in [16] and in assay [17] was > 100 µM in each case.

Broadly, the TGI is the concentration giving total growth inhibition. A high value points to less potent growth arrest.
